Reference: publication PMC8600920 (Antiviral Research, 2021)

What was measured:
HCoV-NL63 = HCoV-NL63 cytopathic effects; type: cell-based; settings: Human coronavirus NL63, LLC-MK2, 120 h, read-out: Anti-HCoV-NL63 (EC50/μM)
in vitro = settings: human
HCoV-OC43 = HCoV-OC43 cytopathic effects; type: cell-based; settings: Betacoronavirus 1, OC43, HCT-8, 120 h, read-out: Anti-HCoV-OC43 (EC50/μM)

CCC(CC)COC(=O)[C@H](C)N[P@](=O)(OC[C@H]1O[C@@](C#N)(c2ccc3c(N)ncnn23)[C@H](O)[C@@H]1O)Oc1ccccc1 [Remdesivir]
EC50 (HCoV-NL63): 2.89 µM | CC50 (in vitro): > 100000 nM | EC50 (HCoV-OC43): 0.82 µM
